Holding throughout (assay): ≥ marks a high value that may be exact or a test limit, other limits are often not marked, values filed in µg/mL are converted to µM
Experiment [1] deals with Candida albicans ATCC 10231.
The subject of experiment [2] is Candida glabrata ATCC 2001.
Experiment [3] has as its system Candida krusei ATCC 6258.
The subject of experiment [4] is Candida parapsilosis ATCC 90018.
In experiment [5] the test system is Candida tropicalis ATCC 750.
The test system of experiment [6] is Escherichia coli ATCC 25922.
Experiment [7] has as its system Pseudomonas aeruginosa ATCC 27853.
Experiment [8] relates to Staphylococcus aureus ATCC 29213.
Experiment [9] has as its system Aeromonas salmonicida 97-4.
In experiment [10] the test system is Aeromonas salmonicida 99-1.
Experiment [11] deals with Candida albicans C627.
The test system of experiment [12] is Candida albicans CCARM 14001.
Experiment [13] has as its system Candida albicans KCTC 7270.
The subject of experiment [14] is Escherichia coli CCARM 1229.
Experiment [15] deals with Escherichia coli CCARM 1238.
Experiment [16] deals with Escherichia coli CGSC 4908.
For experiment [17], the system named is Escherichia coli DC2.
In experiment [18] the test system is Escherichia coli KCTC 1682.
Experiment [19] has as its system Escherichia coli UB1005.
Experiment [20] has as its system Pseudomonas aeruginosa K799.
The subject of experiment [21] is Pseudomonas aeruginosa KCTC 1637.
Experiment [22] deals with Pseudomonas aeruginosa Z61.
Experiment [23] deals with Pseudomonas aeruginosa.
For experiment [24], the system named is Salmonella enterica serovar typhimurium MS7953s.
Experiment [25] relates to Salmonella enterica subsp. enterica serovar Typhimurium ATCC 14028s.
In experiment [26] the test system is Salmonella typhimurium CCARM 8007.
Experiment [27] concerns Salmonella typhimurium CCARM 8009.
Experiment [28] relates to Salmonella typhimurium CCARM 8013.
For experiment [29], the system named is Salmonella typhimurium KCTC 1926.
In experiment [30] the test system is Staphylococcus aureus C623.
Experiment [31] has as its system Staphylococcus aureus CCARM 3089.
In experiment [32] the test system is Staphylococcus aureus CCARM 3090.
Experiment [33] deals with Staphylococcus aureus CCARM 3108.
The subject of experiment [34] is Staphylococcus aureus CCARM 3114.
For experiment [35], the system named is Staphylococcus aureus CCARM 3126.
Experiment [36] relates to Staphylococcus aureus KCTC 1621.
Experiment [37] deals with Staphylococcus aureus.
Experiment [38] concerns Staphylococcus epidermidis C621.
Experiment [39] concerns Trichosporon beigelii KCTC 7707.
The subject of experiment [40] is Bacillus subtilis C971.
The subject of experiment [41] is Corynebacterium xerosis C875.
Experiment [42] relates to Enterococcus faecalis C625.
For experiment [43], the system named is Pseudomonas aeruginosa H187.
The test system of experiment [44] is Pseudomonas aeruginosa H188.
Experiment [45] concerns Salmonella typhimurium C587.
The subject of experiment [46] is Salmonella typhimurium C610.
The subject of experiment [47] is Staphylococcus aureus ATCC 25923.
Experiment [48] deals with Staphylococcus aureus SAP 0017.
Experiment [49] deals with Bacillus subtilis MTCC 2763.
Experiment [50] deals with Escherichia coli MTCC 723.
The test system of experiment [51] is Pseudomonas aeruginosa MTCC 2295.
The test system of experiment [52] is Staphylococcus aureus ATCC BAA-1720.
The subject of experiment [53] is Staphylococcus aureus MTCC 3160.
The subject of experiment [54] is Staphylococcus epidermidis ATCC 51625.

From DBAASP come the findings set out here.

≈ marks a conversion by molar mass, not a printed value. Where “and” joins values, the source holds several entries; their conditions need not be identical. Equal values may be shown once. Where only a bound is given, the exact number is not on record here.

The term MIC denotes the smallest concentration in the dilution series that meets the test's criterion for growth inhibition. A lower MIC goes with inhibition by little substance.

Take `CC[C@H](C)[C@H](NC(=O)CN)C(=O)N[C@@H](CC(C)C)C(=O)N[C@@H](CC(=O)O)C(=O)N[C@H](C(=O)N[C@@H](CCCCN)C(=O)N[C@@H](CC(N)=O)C(=O)N[C@@H](CCCCN)C(=O)N[C@H](C(=O)N[C@@H](CO)C(=O)N[C@@H](CC(N)=O)C(=O)N[C@@H](CC(C)C)C(=O)N[C@@H](Cc1ccccc1)C(=O)N[C@@H](CCCCN)C(=O)N[C@@H](CCCCN)C(=O)N[C@H](C(=O)N[C@@H](CCCCN)C(=O)NCC(=O)N[C@@H](CCC(=O)O)C(=O)N[C@@H](CCCCN)C(N)=O)[C@@H](C)CC)C(C)C)[C@@H](C)CC` [GILDIKNKVSNLFKKIKGEK]: the MIC was 250 µM (≈ 568 µg/mL) in [1]; not below 500 µM in experiment [2]; not below 125 µM in [3]; not below 500 µM in experiment [4]; not below 500 µM in experiment [5]; more than 130 µM in experiment [6]. The MIC in experiment [7] and in [8] was more than 130 µM in each case.

For `CC[C@H](C)[C@H](NC(=O)[C@H](C)NC(=O)[C@H](C)NC(=O)[C@H](CCC(N)=O)NC(=O)CNC(=O)[C@H](CC(C)C)NC(=O)[C@H](Cc1cnc[nH]1)NC(=O)[C@H](CCCCN)NC(=O)[C@H](C)NC(=O)CNC(=O)[C@H](CCCCN)NC(=O)[C@H](CCCNC(=N)N)NC(=O)[C@H](CC(C)C)NC(=O)[C@H](Cc1c[nH]c2ccccc12)NC(=O)[C@H](CCCCN)NC(=O)[C@H](CCCCN)NC(=O)[C@H](Cc1c[nH]c2ccccc12)NC(=O)CN)C(=O)N[C@@H](CCCCN)C(C)=O` [GWKKWLRKGAKHLGQAAIK], the MIC was 0.459 µM (≈ 0.999 µg/mL) in experiment [9]; 0.919 µM (≈ 2 µg/mL) in experiment [10]; 3.68 µM (≈ 7.99 µg/mL) in [11]; 8 µM (≈ 17.4 µg/mL) in experiment [12]; 8 µM and 16 µM in [13]; 8 µM (≈ 17.4 µg/mL) in [14]. For the same compound, the MIC in experiment [15] was 4 µM (≈ 8.7 µg/mL); in experiment [16] it was 0.459 µM (≈ 0.999 µg/mL); in [17], 0.23 µM (≈ 0.5 µg/mL); in [18], 2 µM and 4 µM; in experiment [19], 0.919 µM (≈ 2 µg/mL); in experiment [20], 1.84 µM (≈ 4 µg/mL). In addition, the MIC in experiment [21] is 4 µM and 8 µM; in experiment [22], 0.459 µM (≈ 0.999 µg/mL); in experiment [23], 4 µM (≈ 8.7 µg/mL); in [24], 0.23 µM (≈ 0.5 µg/mL); in [25], 7.35 µM (≈ 16 µg/mL); in [26], 4 µM (≈ 8.7 µg/mL). For the same compound, the MIC in experiment [27] is 16 µM (≈ 34.8 µg/mL); in experiment [28], 4 µM (≈ 8.7 µg/mL); in experiment [29] it was 1 µM and 2 µM; in experiment [30] it was 14.7 µM (≈ 32 µg/mL); in experiment [31], 2 µM (≈ 4.35 µg/mL); in [32], 8 µM (≈ 17.4 µg/mL). Also, the MIC in experiment [33] is 2 µM (≈ 4.35 µg/mL); in experiment [34] it was 4 µM (≈ 8.7 µg/mL); in [35], 4 µM (≈ 8.7 µg/mL); in experiment [36] it was 4 µM and 8 µM; in experiment [37] it was 2.83 µM (≈ 6.15 µg/mL); in experiment [38], 7.35 µM (≈ 16 µg/mL). The MIC in experiment [39] is 4 µM and 8 µM.

Consider `CC[C@H](C)[C@H](NC(=O)[C@H](C)NC(=O)[C@H](CCCCN)NC(=O)[C@H](CC(C)C)NC(=O)[C@H](C)NC(=O)[C@@H](NC(=O)[C@H](Cc1cnc[nH]1)NC(=O)[C@H](CC(C)C)NC(=O)[C@@H](NC(=O)[C@@H](NC(=O)[C@H](CCCCN)NC(=O)[C@@H](NC(=O)[C@H](C)NC(=O)[C@H](CC(C)C)NC(=O)[C@H](CCCCN)NC(=O)[C@H](Cc1ccccc1)NC(=O)[C@@H](NC(=O)[C@H](CCCCN)NC(=O)[C@H](CC(C)C)NC(=O)[C@H](Cc1ccccc1)NC(=O)[C@H](CO)NC(=O)[C@H](CCCCN)NC(=O)[C@H](Cc1c[nH]c2ccccc12)NC(=O)[C@H](CCCCN)NC(C)=O)[C@@H](C)O)C(C)C)[C@@H](C)O)C(C)C)[C@@H](C)O)C(=O)N[C@@H](CO)C(=O)N[C@@H](CO)C(N)=O` [KWKSFLKTFKLAVKTVLHTALKAISS], for which the MIC was 1.7 µM (≈ 5.07 µg/mL) in experiment [40]; 0.848 µM (≈ 2.53 µg/mL) in [41]; 17.2 µM (≈ 51.5 µg/mL) in experiment [42]; 1.7 µM (≈ 5.07 µg/mL) in experiment [17]; 5.43 µM (≈ 16.2 µg/mL) in [19]; 6.86 µM (≈ 20.5 µg/mL) in [43]. Also, the MIC in experiment [44] was 10.9 µM (≈ 32.4 µg/mL); in [45] it was 10.9 µM (≈ 32.4 µg/mL); in experiment [46], 4.31 µM (≈ 12.9 µg/mL); in [47], 10.9 µM (≈ 32.4 µg/mL); in [48], 10.9 µM (≈ 32.4 µg/mL); in experiment [38], 5.43 µM (≈ 16.2 µg/mL).

On to `NC(=O)[C@H](CCCN=C(N)N)NC(=O)[C@H](Cc1c[nH]c2ccccc12)NC(=O)[C@H](Cc1c[nH]c2ccccc12)NC(=O)[C@H](CCCN=C(N)N)NC(=O)[C@@H](N)CCCN=C(N)N` [RRWWR], for which the MIC was not below 81.5 µM in experiment [49]; not below 87.3 µM in experiment [50]; not below 116 µM in experiment [51]; 29.1 µM (≈ 25 µg/mL) in experiment [52]; 29.1 µM (≈ 25 µg/mL) in experiment [53]; 23.3 µM (≈ 20 µg/mL) in experiment [54].
